Measurements from patent US20250059174A1, “Pharmaceutical Compounds and Compositions as C-Kit Kinase Inhibitors” (Enanta Pharmaceuticals, Inc., priority 2023, published 2025).

Key:
[1] = target: Recombinant human c-KIT kinase (Homo sapiens (Human), UniProt P10721); assay: c-KIT kinase chemiluminescence assay (ADP-Glo); type: biochemical; conditions: ATP 50 μM
How it was run: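 Recombinant human c-KIT preincubated 30 min at RT in 40 mM Tris pH 7.5, 20 mM MgCl2, 0.1 mg/mL BSA, 50 μM DTT, then reacted 2 h at RT with ATP and polyEY substrate. ADP-Glo luminescence readout; activity normalized to high/low controls, IC50 and Hill coefficient from inhibitor-versus-normalized-response fit.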

[2] = tested on: M-07e cells; assay: M-07e cellular assay (SCF-mediated cell proliferation); type: cell-based; conditions: Homo sapiens, 72 hours, CellTiter Glo
How it was run: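 Readout came from CellTiter Glo after 72 h of compound treatment in SCF (EC90)-stimulated, pre-starved M-07e cells at 37 °C.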

Recombinant human c-KIT kinase, sequence (P10721 26-976): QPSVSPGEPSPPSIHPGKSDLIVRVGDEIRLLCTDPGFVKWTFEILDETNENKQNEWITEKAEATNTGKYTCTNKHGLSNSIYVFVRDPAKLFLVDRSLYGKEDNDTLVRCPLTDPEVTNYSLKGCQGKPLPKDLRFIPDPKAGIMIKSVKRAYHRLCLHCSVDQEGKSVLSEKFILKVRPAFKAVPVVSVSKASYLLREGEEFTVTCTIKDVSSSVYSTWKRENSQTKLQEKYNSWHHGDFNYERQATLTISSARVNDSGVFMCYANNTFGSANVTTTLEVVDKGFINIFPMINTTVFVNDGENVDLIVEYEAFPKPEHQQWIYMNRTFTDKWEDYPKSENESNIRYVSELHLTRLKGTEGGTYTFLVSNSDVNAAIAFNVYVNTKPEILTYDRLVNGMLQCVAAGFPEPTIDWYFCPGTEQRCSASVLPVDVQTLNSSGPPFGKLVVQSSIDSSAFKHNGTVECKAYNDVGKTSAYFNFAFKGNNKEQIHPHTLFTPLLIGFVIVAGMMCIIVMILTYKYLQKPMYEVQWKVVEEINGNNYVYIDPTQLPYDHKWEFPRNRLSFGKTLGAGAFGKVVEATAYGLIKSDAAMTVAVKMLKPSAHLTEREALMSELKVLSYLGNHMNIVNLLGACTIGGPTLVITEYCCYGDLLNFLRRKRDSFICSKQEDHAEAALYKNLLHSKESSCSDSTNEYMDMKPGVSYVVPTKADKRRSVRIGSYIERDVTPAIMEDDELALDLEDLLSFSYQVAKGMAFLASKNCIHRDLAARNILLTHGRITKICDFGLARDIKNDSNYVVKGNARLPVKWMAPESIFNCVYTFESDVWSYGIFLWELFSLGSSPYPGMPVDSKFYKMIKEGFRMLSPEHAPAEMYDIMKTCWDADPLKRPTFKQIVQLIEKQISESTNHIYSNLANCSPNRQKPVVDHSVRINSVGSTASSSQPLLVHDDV

| Structure (SMILES) | IC50 [1] | EC50 [2] |
| --- | --- | --- |
| Cc1ccc(-c2ccc(C3CC3)cn2)cc1NC(=O)c1cnn2ccc(N3CC4(C3)CC(O)(C(F)F)C4)cc12 [Example 351] | < 100 nM | < 100 nM |
| Cc1sc(-c2noc(C3CN(C(=O)C4CC4)C3)n2)cc1NC(=O)c1cnn2ccc(N3CC4(C3)CC(O)(C(F)F)C4)cc12 [Example 281-122] | 100 to 1000 nM | > 1000 nM |
| Cc1ccc(-c2noc([C@H]3C[C@@H]3F)n2)cc1NC(=O)c1cnn2ccc(N3CC4CC3C4(C)C)cc12 (some centres unmarked) [Example 228] | < 100 nM | 100 to 1000 nM |
| Cc1cc(C)c(-c2ccn3ncc(C(=O)Nc4cc(-c5noc([C@H]6C[C@@H](OC(F)(F)F)C6)n5)ccc4C)c3c2)c(C)c1 [Example 171-3] | > 1000 nM | > 1000 nM |
| Cc1ccc(-c2noc([C@H]3C[C@@H]3F)n2)cc1NC(=O)c1cnn2ccc(N3CCC4(CC3)CC(C)(O)C4)cc12 [Example 184] | < 100 nM | < 100 nM |
| Cc1ccc(-c2noc([C@H]3C[C@@H](OC(F)F)C3)n2)nc1NC(=O)c1cnn2ccc(N3CC4(COC4)C3)cc12 [Example 266] | 100 to 1000 nM | 100 to 1000 nM |
| Cc1ccc(-c2noc([C@H]3C[C@@H]3F)n2)cc1NC(=O)c1cnn2ccc(N3CC4(CN(CC(F)(F)F)C4)C3)cc12 [Example 177] | < 100 nM | < 100 nM |
| O=C(Nc1cc(-c2noc([C@H]3C[C@@H]3F)n2)ccc1C1CC1)c1cnn2ccc(N3CC4(COC4)C3)cc12 [Example 281-94] | > 1000 nM | > 1000 nM |
| Cc1ncc(-c2ncc(OC(F)F)cn2)cc1NC(=O)c1cnn2ccc(N3CC4(C3)CC(O)(C(F)F)C4)cc12 [Example 316] | 100 to 1000 nM | 100 to 1000 nM |
| Cc1ccc(-c2noc([C@H]3C[C@@H]3F)n2)cc1NC(=O)c1cnc(-c2cccc(NS(C)(=O)=O)c2)o1 [Example 308-28] | 100 to 1000 nM | 100 to 1000 nM |
| Cc1ncc(-c2nnn(C3CN(C(=O)OC(C)(C)C)C3)n2)cc1NC(=O)c1cnn2ccc(N3CC4(C3)CC(O)(C(F)F)C4)cc12 [Example 312-9] | > 1000 nM | 100 to 1000 nM |
| Cc1ccc(-c2noc(C34CC(F)(C3)C4)n2)cc1NC(=O)c1cnn2ccc(N3CC4(COC4)C3)cc12 [Example 249] | < 100 nM | < 100 nM |
| Cc1sc(-c2noc(C3CN(C(=O)OC(C)(C)C)C3)n2)cc1NC(=O)c1cnn2ccc(N3CC4(C3)CC(O)(C(F)F)C4)cc12 [Example 281-115] | > 1000 nM | > 1000 nM |
| Cc1sc(-c2noc([C@H]3C[C@@H](OC(F)(F)F)C3)n2)cc1NC(=O)c1cnn2ccc(N3CC4(COC4)C3)cc12 [Example 281-113] | 100 to 1000 nM | 100 to 1000 nM |
| CC(=O)Nc1ccc(-c2ncc(C(=O)Nc3cc(-c4noc([C@H]5C[C@@H]5F)n4)ccc3C)o2)cc1 [Example 308-19] | 100 to 1000 nM | 100 to 1000 nM |
| Cc1ccc(-c2noc([C@H]3C[C@@H]3F)n2)cc1NC(=O)c1cnn2ccc(N3CC4(C3)CN(S(C)(=O)=O)C4)cc12 [Example 241-1] | < 100 nM | < 100 nM |
| Cc1ccc(-c2noc([C@H]3C[C@@H]3F)n2)cc1NC(=O)c1cnn2ccc(-n3cc(NC(=O)OC(C)(C)C)cn3)cc12 [Example 236] | 100 to 1000 nM | 100 to 1000 nM |
| Cc1ccc(-c2noc([C@H]3C[C@@H]3F)n2)cc1NC(=O)c1cnc(N2CC(C(=O)NC3CC3)C2)s1 [Example 98-5] | > 1000 nM | > 1000 nM |
| Cc1ccc(-c2noc([C@H]3C[C@@H]3F)n2)cc1NC(=O)c1cnn2ccc(-c3ccc(F)cc3)cc12 [Example 148] | 100 to 1000 nM | 100 to 1000 nM |
| Cc1ncc(-c2nnn(CC(F)(F)F)n2)cc1NC(=O)c1cnn2ccc(N3CC4(C3)CC(O)(C(F)F)C4)cc12 [Example 312-5] | > 1000 nM | < 100 nM |
| CC(=O)N1CCN(c2ccn3ncc(C(=O)Nc4cc(-c5noc([C@H]6C[C@@H]6F)n5)ccc4C)c3c2)C[C@H]1C [Example 234] | < 100 nM | < 100 nM |
| Cc1ncc(-c2ncc(C3CC3)cn2)cc1NC(=O)c1cnn2ccc(-c3c(C)nc(N)nc3C)cc12 [Example 371-1] | > 1000 nM | 100 to 1000 nM |
| Cc1ncc(-c2noc(C3(F)CN(C(=O)C(C)(F)F)C3)n2)cc1NC(=O)c1cnn2ccc(N3CC4(C3)CC(O)(C(F)F)C4)cc12 [Example 281-103] | 100 to 1000 nM | > 1000 nM |

| Structure (SMILES) | IC50 [1] | EC50 [2] |
| --- | --- | --- |
| C#Cc1ccn2ncc(C(=O)Nc3cc(-c4noc([C@H]5C[C@@H]5F)n4)ccc3C)c2c1 [Example 108] | < 100 nM | < 100 nM |
| Cc1ncc(-c2noc(C3(F)CN(C(=O)OC(C)(C)C)C3)n2)cc1NC(=O)c1cnn2ccc(N3CC4(C3)CC(O)(C(F)F)C4)cc12 [Example 281-101] | > 1000 nM | 100 to 1000 nM |
| Cc1ncc(-c2nnn(CC3CC3)n2)cc1NC(=O)c1cnn2ccc(N3CC4(C3)CC(O)(C(F)F)C4)cc12 [Example 312-7] | 100 to 1000 nM | < 100 nM |
| Cc1ncc(-c2noc(C3CN(C(=O)C4CC4)C3)n2)cc1NC(=O)c1cnn2ccc(N3CC4(C3)CC(O)(C(F)F)C4)cc12 [Example 281-86] | > 1000 nM | > 1000 nM |
| Cc1ccc(-c2noc([C@H]3C[C@@H]3F)n2)cc1NC(=O)c1cnn2ccc(-c3cn(C45CC(C(F)(F)F)(C4)C5)nn3)cc12 [Example 126] | < 100 nM | < 100 nM |
| C/C=C/c1ccn2ncc(C(=O)Nc3cc(-c4noc([C@H]5C[C@@H]5F)n4)ccc3C)c2c1 [Example 69] | < 100 nM | < 100 nM |
| Cc1ccc(-c2noc([C@H]3C[C@@H]3F)n2)cc1NC(=O)c1cnn2cc(F)ccc12 [Example 1a] | 100 to 1000 nM | 100 to 1000 nM |
| Cc1sc(-c2noc([C@H]3C[C@@H]3F)n2)cc1NC(=O)c1cnn2ccc(N3CC4(C3)CC(O)(C(F)F)C4)cc12 [Example 281-95] | 100 to 1000 nM | < 100 nM |
| COC1(OC)CC2(CN(c3ccn4ncc(C(=O)Nc5cc(-c6noc([C@H]7C[C@@H]7F)n6)ccc5C)c4c3)C2)C1 [Example 226] | < 100 nM | < 100 nM |
| Cc1ccc(-c2noc([C@H]3C[C@@H]3F)n2)cc1NC(=O)c1cnc(-c2ccccc2N2CC3(COC3)C2)o1 [Example 289] | > 1000 nM | > 1000 nM |
| Cc1ccc(-c2noc(N3CC(F)(F)C3)n2)cc1NC(=O)c1cnn2ccc(N3CC4(COC4)C3)cc12 [Example 281-81] | 100 to 1000 nM | < 100 nM |
| Cc1ccc(-c2noc([C@H]3C[C@@H]3F)n2)cc1NC(=O)c1cnn2ccc(NC(=O)OCc3ccccc3)cc12 [Example 95] | 100 to 1000 nM | 100 to 1000 nM |
| Cc1ccc(-c2noc([C@H]3C[C@@H]3F)n2)cc1NC(=O)c1cnn2ccc(C=O)cc12 [Example 71] | < 100 nM | 100 to 1000 nM |
| Cc1ccc(-c2noc([C@H]3C[C@@H]3F)n2)cc1NC(=O)c1cnn2ccc(-c3cc(C(F)(F)F)nn3C)cc12 [Example 171-22] | 100 to 1000 nM | 100 to 1000 nM |
| Cc1ccc(-c2noc([C@H]3C[C@@H]3F)n2)cc1NC(=O)c1cnn2ccc(-c3cnn(CC(C)(C)O)c3)cc12 [Example 142] | < 100 nM | < 100 nM |
| Cc1ncc(-c2noc(C3CC(F)(F)C3)n2)cc1NC(=O)c1cnn2cc(-c3cn(C(F)F)nn3)ccc12 [Example 132-7] | 100 to 1000 nM | 100 to 1000 nM |
| Cc1ccc(-c2ccc(C3CC3)cn2)cc1NC(=O)c1cnn2ccc(N3CC4(COC4)C3)cc12 [Example 336] | < 100 nM | < 100 nM |
| Cc1ccc(-c2noc([C@H]3C[C@@H]3F)n2)cc1NC(=O)c1cnn2ccc(N3CC4(CCN4C(=O)OC(C)(C)C)C3)cc12 [Example 235] | > 1000 nM | > 1000 nM |
| Cc1ccc(-c2noc([C@H]3C[C@@H]3F)n2)cc1NC(=O)c1cnn2ccc(-c3cnccn3)cc12 [Example 171-9] | < 100 nM | < 100 nM |
| CN[C@H]1CCN(c2ccn3ncc(C(=O)Nc4cc(-c5noc([C@H]6C[C@@H]6F)n5)ccc4C)c3c2)C1 [Example 205] | < 100 nM | 100 to 1000 nM |
| Cc1ccc(-c2noc([C@H]3C[C@@H]3F)n2)cc1NC(=O)c1cnc(-c2ccnc(N)c2)o1 [Example 290] | 100 to 1000 nM | 100 to 1000 nM |
| Cc1ncc(-c2ccc(OC(F)(F)F)cn2)cc1NC(=O)c1cnn2ccc(N3CC4(COC4)C3)cc12 [Example 332] | 100 to 1000 nM | < 100 nM |
| O=C(Nc1cc(-c2noc([C@H]3C[C@@H]3F)n2)ccc1C(F)F)c1cnn2ccc(N3CC4(COC4)C3)cc12 [Example 281-116] | 100 to 1000 nM | 100 to 1000 nM |
